Measurements from ChEMBL document CHEMBL1275533, “In vitro antibacterial activity of vertilmicin and its susceptibility to modifications by the recombinant AAC6'-APH2'' enzyme” (2008).
Values after ≈ are worked out from the molar mass of the structure shown. Active and inactive are the calls of the source. No cut-off for these calls is given here.

What was measured:
Serratia marcescens [1] = experiment: Antibacterial activity against gentamicin-resistant Serratia marcescens clinical isolate after 18 hrs by agar dilution method; assay type: functional
Klebsiella aerogenes [2] = experiment: Antibacterial activity against non-gentamicin-resistant Enterobacter aerogenes clinical isolate assessed as susceptible isolates after 18 hrs by agar dilution method; assay type: functional
Staphylococcus aureus [3] = experiment: Antibacterial activity against non-gentamicin-resistant Staphylococcus aureus clinical isolate after 18 hrs by agar dilution method; assay type: functional
Enterobacter cloacae [4] = experiment: Antibacterial activity against non-gentamicin-resistant Enterobacter cloacae clinical isolate assessed as susceptible isolates after 18 hrs by agar dilution method; assay type: functional
Klebsiella aerogenes [5] = experiment: Antibacterial activity against gentamicin-resistant Enterobacter aerogenes clinical isolate after 18 hrs by agar dilution method; assay type: functional
Klebsiella pneumoniae [6] = experiment: Antibacterial activity against non-gentamicin-resistant Klebsiella pneumoniae clinical isolate after 18 hrs by agar dilution method; assay type: functional
Escherichia coli [7] = experiment: Antibacterial activity against gentamicin-resistant Escherichia coli clinical isolate assessed as susceptible isolates after 18 hrs by agar dilution method; assay type: functional
Citrobacter freundii [8] = experiment: Antibacterial activity against non-gentamicin-resistant Citrobacter freundii clinical isolate after 18 hrs by agar dilution method; assay type: functional
Escherichia coli [9] = experiment: Antibacterial activity against gentamicin-resistant Escherichia coli clinical isolate after 18 hrs by agar dilution method; assay type: functional
Citrobacter freundii [10] = experiment: Antibacterial activity against non-gentamicin-resistant Citrobacter freundii clinical isolate assessed as susceptible isolates after 18 hrs by agar dilution method; assay type: functional
Enterococcus faecalis = experiment: Antibacterial activity against gentamicin-resistant Enterococcus faecalis clinical isolate assessed as susceptible isolates after 18 hrs by agar dilution method; assay type: functional, organism-based
Haemophilus influenzae [11] = experiment: Antibacterial activity against non-gentamicin-resistant Haemophilus influenzae clinical isolate assessed as susceptible isolates after 18 hrs by agar dilution method; assay type: functional, organism-based
Serratia marcescens [12] = experiment: Antibacterial activity against non-gentamicin-resistant Serratia marcescens clinical isolate assessed as susceptible isolates after 18 hrs by agar dilution method; assay type: functional
[13] = tested on: Haemophilus parainfluenzae; experiment: Antibacterial activity against non-gentamicin-resistant Haemophilus parainfluenzae clinical isolate assessed as susceptible isolates after 18 hrs by agar dilution method; assay type: functional, organism-based
Pseudomonas sp. [14] = experiment: Antibacterial activity against gentamicin-resistant Pseudomonas spp. clinical isolate after 18 hrs by agar dilution method; assay type: functional
Morganella morganii [15] = experiment: Antibacterial activity against non-gentamicin-resistant Morganella morganii clinical isolate after 18 hrs by agar dilution method; assay type: functional
Proteus mirabilis = experiment: Antibacterial activity against gentamicin-resistant Proteus mirabilis clinical isolate after 18 hrs by agar dilution method; assay type: functional
Klebsiella aerogenes [16] = experiment: Antibacterial activity against gentamicin-resistant Enterobacter aerogenes clinical isolate assessed as susceptible isolates after 18 hrs by agar dilution method; assay type: functional
Citrobacter freundii [17] = experiment: Antibacterial activity against gentamicin-resistant Citrobacter freundii clinical isolate assessed as susceptible isolates after 18 hrs by agar dilution method; assay type: functional
Klebsiella pneumoniae [18] = experiment: Antibacterial activity against gentamicin-resistant Klebsiella pneumoniae clinical isolate after 18 hrs by agar dilution method; assay type: functional
[19] = tested on: Staphylococcus epidermidis; experiment: Antibacterial activity against non-gentamicin-resistant Staphylococcus epidermidis clinical isolate assessed as susceptible isolates after 18 hrs by agar dilution method; assay type: functional
Staphylococcus aureus [20] = experiment: Antibacterial activity against gentamicin-resistant Staphylococcus aureus clinical isolate after 18 hrs by agar dilution method; assay type: functional
Haemophilus influenzae [21] = experiment: Antibacterial activity against non-gentamicin-resistant Haemophilus influenzae clinical isolate after 18 hrs by agar dilution method; assay type: functional
Morganella morganii [22] = experiment: Antibacterial activity against gentamicin-resistant Morganella morganii clinical isolate after 18 hrs by agar dilution method; assay type: functional
Enterobacter cloacae [23] = experiment: Antibacterial activity against non-gentamicin-resistant Enterobacter cloacae clinical isolate after 18 hrs by agar dilution method; assay type: functional
Serratia marcescens [24] = experiment: Antibacterial activity against gentamicin-resistant Serratia marcescens clinical isolate assessed as susceptible isolates after 18 hrs by agar dilution method; assay type: functional
[25] = tested on: Acinetobacter calcoaceticus; experiment: Antibacterial activity against gentamicin-resistant Acinetobacter calcoaceticus clinical isolate assessed as susceptible isolates after 18 hrs by agar dilution method; assay type: functional
Morganella morganii [26] = experiment: Antibacterial activity against non-gentamicin-resistant Morganella morganii clinical isolate assessed as susceptible isolates after 18 hrs by agar dilution method; assay type: functional
[27] = tested on: Staphylococcus epidermidis; experiment: Antibacterial activity against gentamicin-resistant Staphylococcus epidermidis clinical isolate assessed as susceptible isolates after 18 hrs by agar dilution method; assay type: functional
Klebsiella aerogenes [28] = experiment: Antibacterial activity against non-gentamicin-resistant Enterobacter aerogenes clinical isolate after 18 hrs by agar dilution method; assay type: functional
Citrobacter koseri [29] = experiment: Antibacterial activity against non-gentamicin-resistant Citrobacter diversus clinical isolate assessed as susceptible isolates after 18 hrs by agar dilution method; assay type: functional
Citrobacter koseri [30] = experiment: Antibacterial activity against gentamicin-resistant Citrobacter diversus clinical isolate assessed as susceptible isolates after 18 hrs by agar dilution method; assay type: functional
Citrobacter koseri [31] = experiment: Antibacterial activity against non-gentamicin-resistant Citrobacter diversus clinical isolate after 18 hrs by agar dilution method; assay type: functional
Pseudomonas aeruginosa [32] = experiment: Antibacterial activity against non-gentamicin-resistant Pseudomonas aeruginosa clinical isolate after 18 hrs by agar dilution method; assay type: functional
Citrobacter koseri [33] = experiment: Antibacterial activity against gentamicin-resistant Citrobacter diversus clinical isolate after 18 hrs by agar dilution method; assay type: functional
Klebsiella pneumoniae [34] = experiment: Antibacterial activity against gentamicin-resistant Klebsiella pneumoniae clinical isolate assessed as susceptible isolates after 18 hrs by agar dilution method; assay type: functional
Enterobacter cloacae [35] = experiment: Antibacterial activity against gentamicin-resistant Enterobacter cloacae clinical isolate after 18 hrs by agar dilution method; assay type: functional
Pseudomonas aeruginosa [36] = experiment: Antibacterial activity against non-gentamicin-resistant Pseudomonas aeruginosa clinical isolate assessed as susceptible isolates after 18 hrs by agar dilution method; assay type: functional
Morganella morganii [37] = experiment: Antibacterial activity against gentamicin-resistant Morganella morganii clinical isolate assessed as susceptible isolates after 18 hrs by agar dilution method; assay type: functional
Escherichia coli [38] = experiment: Antibacterial activity against non-gentamicin-resistant Escherichia coli clinical isolate assessed as susceptible isolates after 18 hrs by agar dilution method; assay type: functional
Providencia rettgeri [39] = experiment: Antibacterial activity against non-gentamicin-resistant Proteus rettgeri clinical isolate assessed as susceptible isolates after 18 hrs by agar dilution method; assay type: functional
Pseudomonas sp. [40] = experiment: Antibacterial activity against gentamicin-resistant Pseudomonas spp. clinical isolate assessed as susceptible isolates after 18 hrs by agar dilution method; assay type: functional
Providencia rettgeri [41] = experiment: Antibacterial activity against gentamicin-resistant Proteus rettgeri clinical isolate assessed as susceptible isolates after 18 hrs by agar dilution method; assay type: functional
Staphylococcus aureus [42] = experiment: Antibacterial activity against non-gentamicin-resistant Staphylococcus aureus clinical isolate assessed as susceptible isolates after 18 hrs by agar dilution method; assay type: functional
[43] = tested on: Staphylococcus epidermidis; experiment: Antibacterial activity against non-gentamicin-resistant Staphylococcus epidermidis clinical isolate after 18 hrs by agar dilution method; assay type: functional
Providencia rettgeri [44] = experiment: Antibacterial activity against gentamicin-resistant Proteus rettgeri clinical isolate after 18 hrs by agar dilution method; assay type: functional
[45] = tested on: Escherichia coli BL21(DE3); experiment: Acetylation activity of AAC(6')-APH(2'') in Escherichia coli BL21(DE3) assessed as production of free pyridine-4-thiolate

Work on `CCN[C@@H]1C[C@H](N)[C@@H](O[C@H]2OC(CN)=CC[C@H]2N)[C@H](O)[C@H]1O[C@H]1OC[C@](C)(O)[C@H](NC)[C@H]1O` [NETILMICIN] yielded an MIC50 (Serratia marcescens [1]) of over 128 µg/mL, an MIC90 (Serratia marcescens [1]) of over 128 µg/mL and an Activity (Klebsiella aerogenes [2]) of 98.1%. It also gave an MIC50 (Staphylococcus aureus [3]) of 0.25 µg/mL (≈ 0.526 µM), an MIC90 (Staphylococcus aureus [3]) of 16 µg/mL (≈ 33.6 µM) and an Activity (Enterobacter cloacae [4]) of 98.2%. It also gave an MIC50 (Klebsiella aerogenes [5]) of 32 µg/mL (≈ 67.3 µM), an MIC90 (Klebsiella aerogenes [5]) of 128 µg/mL (≈ 269 µM) and an MIC50 (Klebsiella pneumoniae [6]) of 0.5 µg/mL (≈ 1.05 µM). The MIC90 (Klebsiella pneumoniae [6]) was 0.5 µg/mL (≈ 1.05 µM), the Activity (Escherichia coli [7]) was 66.7% and the MIC50 (Citrobacter freundii [8]) was 1 µg/mL (≈ 2.1 µM). For the same compound, the MIC90 (Citrobacter freundii [8]) was 16 µg/mL (≈ 33.6 µM), the MIC50 (Escherichia coli [9]) was 8 µg/mL (≈ 16.8 µM) and the MIC90 (Escherichia coli [9]) was 64 µg/mL (≈ 135 µM). For the same compound, the Activity (Citrobacter freundii [10]) was 83.3%, the Activity (Enterococcus faecalis) was “inactive” and the Activity (Haemophilus influenzae [11]) was “inactive”. The Activity (Serratia marcescens [12]) was 96.3%, the Activity [13] was “inactive” and the MIC50 (Pseudomonas sp. [14]) was over 128 µg/mL. The MIC90 (Pseudomonas sp. [14]) was over 128 µg/mL, the MIC50 (Morganella morganii [15]) was 1 µg/mL (≈ 2.1 µM) and the MIC90 (Morganella morganii [15]) was 2 µg/mL (≈ 4.21 µM). The MIC50 (Proteus mirabilis) was 16 µg/mL (≈ 33.6 µM), the MIC90 (Proteus mirabilis) was over 128 µg/mL and the Activity (Klebsiella aerogenes [16]) was 30%. For the same compound, the Activity (Citrobacter freundii [17]) was 47.4%, the MIC50 (Klebsiella pneumoniae [18]) was 32 µg/mL (≈ 67.3 µM) and the MIC90 (Klebsiella pneumoniae [18]) was over 128 µg/mL. For the same compound, the Activity [19] was 100%, the MIC50 (Staphylococcus aureus [20]) was 16 µg/mL (≈ 33.6 µM) and the MIC90 (Staphylococcus aureus [20]) was 128 µg/mL (≈ 269 µM). For the same compound, the MIC50 (Haemophilus influenzae [21]) was 1 µg/mL (≈ 2.1 µM), the MIC90 (Haemophilus influenzae [21]) was 2 µg/mL (≈ 4.21 µM) and the MIC50 (Morganella morganii [22]) was 8 µg/mL (≈ 16.8 µM). It also gave an MIC90 (Morganella morganii [22]) of 16 µg/mL (≈ 33.6 µM), an MIC50 (Enterobacter cloacae [23]) of 0.5 µg/mL (≈ 1.05 µM) and an MIC90 (Enterobacter cloacae [23]) of 2 µg/mL (≈ 4.21 µM). The Activity (Serratia marcescens [24]) was 10%, the Activity [25] was 20% and the Activity (Morganella morganii [26]) was 100%. It also gave an Activity [27] of 84.6%, an MIC50 (Klebsiella aerogenes [28]) of 0.5 µg/mL (≈ 1.05 µM) and an MIC90 (Klebsiella aerogenes [28]) of 1 µg/mL (≈ 2.1 µM). It also gave an Activity (Citrobacter koseri [29]) of 100%, an Activity (Citrobacter koseri [30]) of 7.1% and an MIC50 (Citrobacter koseri [31]) of 0.5 µg/mL (≈ 1.05 µM). It also gave an MIC90 (Citrobacter koseri [31]) of 0.5 µg/mL (≈ 1.05 µM), an MIC50 (Pseudomonas aeruginosa [32]) of 8 µg/mL (≈ 16.8 µM) and an MIC90 (Pseudomonas aeruginosa [32]) of 32 µg/mL (≈ 67.3 µM). It also gave an MIC50 (Citrobacter koseri [33]) of over 128 µg/mL, an MIC90 (Citrobacter koseri [33]) of over 128 µg/mL and an Activity (Klebsiella pneumoniae [34]) of 17.9%. The MIC50 (Enterobacter cloacae [35]) was 128 µg/mL (≈ 269 µM), the MIC90 (Enterobacter cloacae [35]) was over 128 µg/mL and the Activity (Pseudomonas aeruginosa [36]) was 63.9%. The Activity (Morganella morganii [37]) was 41.7%, the Activity (Escherichia coli [38]) was 100% and the Activity (Providencia rettgeri [39]) was 92.3%. For the same compound, the Activity (Pseudomonas sp. [40]) was 0%, the Activity (Providencia rettgeri [41]) was 40% and the Activity (Staphylococcus aureus [42]) was 88.3%. It also gave an MIC50 [43] of 0.25 µg/mL (≈ 0.526 µM), an MIC90 [43] of 1 µg/mL (≈ 2.1 µM) and an MIC50 (Providencia rettgeri [44]) of 16 µg/mL (≈ 33.6 µM). The MIC90 (Providencia rettgeri [44]) was 128 µg/mL (≈ 269 µM) and the Km [45] was 304 µM.
